Square brackets hold non-standard residues; d marks the D form. Peptide text beside a SMILES is read from it. Ala(1H-tetrazol-5-yl) = N[C@@H](Cc1nnn[nH]1)C(=O)O
What was measured:
[1] = Peptide stability test, phosphate buffer (pH 7.0), 40° C. storage, HPLC remaining rate; assay type: physicochemical; settings: Table 4; 100 μM in phosphate buffer pH 7.0; HPLC conditions 1
Procedure: Peptides 1 and 3 to 5 synthesized in Example 2 were weighed and dissolved in phosphate buffer (pH 7.0) to prepare 1.0 mM peptide solutions. The 1.0 mM peptide solutions were then diluted with phosphate buffer to 100 μM. After filtering with Chromatdisk (product of Merck Millipore, Millex-GV, 0.22 μm), each filtrate was dispensed into an LC vial (Waters Deactivated […] prepared peptide solutions were incubated for one month or 2 months in a 40° C. thermostatic bath to obtain stored samples. A simultaneously prepared sample among the peptide solutions that was not stored was used as a standard sample (initial sample). The standard sample and the stored samples were stored at -30° C. until sample analysis. Using the total weight of the aqueous peptide solution and storage vessel as the specimen weight, measurements were recorded as the specimen weights before storage and the specimen weights after storage under different storage conditions. The empty weight of the storage vessel was also measured, and the moisture permeability was determined by the following formula. After stirring the standard sample and the stored samples with a vortex mixer, each peptide solution was transferred to an HPLC vial (Deactivated Qsert vial by Waters Co.). Reverse-phase HPLC (HPLC system: Prominence by Shimadzu Corp.) was conducted under the conditions shown in Table 3 below for analysis of the peptide solutions, and chromatograms were obtained. Guard column: XSelect CSH C18 by Waters Co., 5 μm, 4.6×20 mm Guard Cartridge Detection wavelength: 220 nm Mobile phase A: 0.1% formic acid aqueous solution Mobile phase B: 0.1% acetonitrile formate solution Measuring time: 30 minutes Measuring sample injection rate: 50 μL Flow rate: 1.0 mL/min Sample cooler: 4° C. Column temperature: 40° C. Mobile phase delivery: The mixing ratio of mobile phase A and mobile phase B was varied as shown in Table 3 for linear concentration gradient control. The peak area value for the peptide in the chromatogram was calculated, and the remaining rate (remaining rate before correction for water) was calculated using formula (2). The remaining rate after correction for water was also calculated from the remaining rate before correction for water using formula (3), taking into account the moisture permeability of the vessel. Peptides 10 and 11 synthesized in Example 2 were weighed and dissolved in phosphate buffer (pH 7.0) to prepare 1.0 mM peptide solutions. Each solution was filtered with a Chromatdisk (product of Merck Millipore. Millex-GV, 0.22 μm). Each filtrate was diluted to 100 μM with phosphate buffer (pH 7.0) and dispensed into a tube (Protein LoBind Tube by Eppendorf Co.). The prepared peptide solutions were incubated for one month or 2 months in a 40° C. thermostatic bath to obtain stored samples. A simultaneously prepared sample among the peptide solutions that was not stored was used as a standard sample (initial sample). The standard sample and the stored samples were stored at -30° C. until sample analysis. The remaining rate after correction for water for each peptide among the stored samples was measured in the same manner as Example 4, and the results are shown in Table 8.

[2] = Peptide stability test, Tris buffer (pH 7.0), 60° C. storage, HPLC remaining rate; assay type: physicochemical; settings: Table 6; 100 μM in Tris buffer pH 7.0; HPLC conditions 2
Procedure, shortened: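 Peptides at 100 μM in Tris buffer (pH 7.0) stored 1 or 2 weeks at 60° C.; unstored sample kept at −30° C. as initial reference. Remaining peptide quantified by reversed-phase HPLC at 220 nm (formic acid/acetonitrile gradient, 40° C. column), as water-corrected remaining rate.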

CC[C@H](C)[C@H](NC(=O)CNC(=O)[C@H](CC(=O)O)NC(=O)[C@H](CO)NC(=O)[C@@H](N)Cc1cnc[nH]1)C(=O)N[C@@H](Cc1ccccc1)C(=O)N[C@H](C(=O)N[C@@H](CC(=O)O)C(=O)N[C@@H](CO)C(=O)N[C@@H](Cc1ccc(O)cc1)C(=O)N[C@@H](CO)C(=O)N[C@@H](CCCNC(=N)N)C(=O)N[C@@H](Cc1ccc(O)cc1)C(=O)N[C@@H](CCCNC(=N)N)C(=O)N[C@@H](CCCCN)C(=O)N[C@@H](CCC(N)=O)C(=O)N[C@@H](CCSC)C(=O)N[C@@H](C)C(=O)N[C@H](C(=O)N[C@@H](CCCCN)C(=O)N[C@@H](CCCCN)C(=O)N[C@@H](Cc1ccc(O)cc1)C(=O)N[C@@H](CC(C)C)C(=O)N[C@@H](C)C(=O)N[C@@H](C)C(=O)N[C@H](C(=O)N[C@@H](CC(C)C)C(N)=O)C(C)C)C(C)C)[C@@H](C)O [Peptide 1, reference compound]
remaining rate after correction for water, 40° C., 1 month preservation [1]: 37.4% | remaining rate after correction for water, 40° C., 2 months preservation [1]: 21.3%

CC[C@H](C)[C@H](NC(=O)CNC(=O)[C@H](Cc1nnn[nH]1)NC(=O)[C@H](CO)NC(=O)[C@H](Cc1c[nH]cn1)NC(C)=O)C(=O)N[C@@H](Cc1ccccc1)C(=O)N[C@H](C(=O)N[C@@H](Cc1nnn[nH]1)C(=O)N[C@@H](CO)C(=O)N[C@@H](Cc1ccc(O)cc1)C(=O)N[C@@H](CO)C(=O)N[C@@H](CCCNC(=N)N)C(=O)N[C@@H](Cc1ccc(O)cc1)C(=O)N[C@@H](CCCNC(=N)N)C(=O)N[C@@H](CCCCN)C(=O)N[C@@H](CCC(N)=O)C(=O)N[C@@H](CC(C)C)C(=O)N[C@@H](C)C(=O)N[C@H](C(=O)N[C@@H](CCCCN)C(=O)N[C@@H](CCCCN)C(=O)N[C@@H](Cc1ccc(O)cc1)C(=O)N[C@@H](CC(C)C)C(=O)N[C@@H](C)C(=O)N[C@@H](C)C(=O)N[C@H](C(=O)N[C@@H](CC(C)C)C(N)=O)C(C)C)C(C)C)[C@@H](C)O [Peptide 9] (Ac-HS[Ala(1H-tetrazol-5-yl)]GIFT[Ala(1H-tetrazol-5-yl)]SYSRYRKQLAVKKYLAAVL-NH2)
remaining rate after correction for water, 60° C., 1 week preservation [2]: 98.4% | remaining rate after correction for water, 60° C., 2 weeks preservation [2]: 92.8%
